Experiment [1] deals with GDP-bound NRAS wild-type protein (Homo sapiens, UniProt P01111). Description: Binding to NRAS by surface plasmon resonance (SPR), Single Cycle Kinetics. The following applies: SPR, GDP-bound NRAS wild-type vs GDP-bound KRAS wild-type. In general terms: Surface plasmon resonance follows binding to a sensor surface in real time, without labels.
Experiment [2] deals with GDP-bound HRAS wild-type protein (Homo sapiens, UniProt P01112). Description: Binding to HRAS by surface plasmon resonance (SPR), Single Cycle Kinetics. The following applies: SPR, GDP-bound HRAS wild-type vs GDP-bound KRAS wild-type.
GDP-bound HRAS wild-type protein, sequence (P01112 whole entry): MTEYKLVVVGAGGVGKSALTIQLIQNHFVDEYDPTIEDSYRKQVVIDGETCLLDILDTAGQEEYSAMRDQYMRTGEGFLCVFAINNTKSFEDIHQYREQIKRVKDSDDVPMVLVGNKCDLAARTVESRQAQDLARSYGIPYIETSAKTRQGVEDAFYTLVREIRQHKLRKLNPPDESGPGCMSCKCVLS

GDP-bound NRAS wild-type protein, sequence (P01111 whole entry): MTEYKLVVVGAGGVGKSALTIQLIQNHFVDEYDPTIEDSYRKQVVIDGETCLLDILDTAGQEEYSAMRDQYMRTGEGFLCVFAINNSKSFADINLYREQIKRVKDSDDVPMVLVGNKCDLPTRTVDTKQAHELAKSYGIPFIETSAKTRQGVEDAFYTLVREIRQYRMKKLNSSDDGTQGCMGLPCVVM

Turning to `CCO[C@@H]1C[C@H]2C(=O)NC3(CCC3)C(=O)N(C)[C@@H](C3CCCC3)C(=O)N(C)[C@H](C(=O)N(C)C)CC(=O)N(C)[C@H]3CCCCCc4ccc(cc4)C[C@@H](C(=O)N(C)CC(=O)N[C@@H](CCc4cc(F)c(C(F)(F)F)c(F)c4)C(=O)N2C1)N1CC/C=C\C[C@@H](C1=O)N(C)C(=O)CN(C)C(=O)[C@H]([C@@H](C)CC)NC3=O` [PP2261], the “NRAS/KRAS (ratio of KD value with respect to NRAS to KD value with respect to KRAS)” value in experiment [1] is “A (a compound having 10 or more and less than 20 is denoted as A)”. Further, the “HRAS/KRAS (ratio of KD value with respect to HRAS to KD value with respect to KRAS)” value in experiment [2] is “A (a compound having 10 or more and less than 20 is denoted as A)”.
As to `CCO[C@@H]1C[C@H]2C(=O)NC3(CCC3)C(=O)N(C)[C@@H](C3CCCC3)C(=O)N(C)[C@H](C(=O)N(C)C)CC(=O)N(C)[C@H]3CCCCCc4ccc(cc4)C[C@@H](C(=O)N(C)CC(=O)N[C@@H](CCc4ccc(C(F)(F)F)c(OC)c4)C(=O)N2C1)N1CC/C=C\C[C@@H](C1=O)N(C)C(=O)CN(C)C(=O)[C@H]([C@@H](C)CC)NC3=O` [PP2262], in experiment [1], the “NRAS/KRAS (ratio of KD value with respect to NRAS to KD value with respect to KRAS)” value is “A (a compound having 10 or more and less than 20 is denoted as A)”. Moreover, the “HRAS/KRAS (ratio of KD value with respect to HRAS to KD value with respect to KRAS)” value in experiment [2] is “B (a compound having 3 or more and less than 10 is denoted as B)”.
As for `CCO[C@@H]1C[C@H]2C(=O)NC3(CCC3)C(=O)N(C)[C@@H](C3CCCC3)C(=O)N(C)[C@H](C(=O)N(C)CC)CC(=O)N(C)[C@H]3CCCCCCc4ccc(cc4)C[C@@H](C(=O)N(C)CC(=O)N[C@@H](CCc4ccc(C(F)(F)F)c(OC)c4)C(=O)N2C1)N1CC/C=C\C[C@@H](C1=O)N(C)C(=O)CN(C)C(=O)[C@H]([C@@H](C)CC)NC3=O` [PP2263], in experiment [1], the “NRAS/KRAS (ratio of KD value with respect to NRAS to KD value with respect to KRAS)” value was “A (a compound having 10 or more and less than 20 is denoted as A)”. In addition, the “HRAS/KRAS (ratio of KD value with respect to HRAS to KD value with respect to KRAS)” value in experiment [2] was “A (a compound having 10 or more and less than 20 is denoted as A)”.
Consider `CCO[C@@H]1C[C@H]2C(=O)NC3(CCC3)C(=O)N(C)[C@@H](C3CCCC3)C(=O)N(C)[C@H](C(=O)N(C)C)CC(=O)N(C)[C@H]3CCCCCCc4ccc(cc4)C[C@@H](C(=O)N(C)CC(=O)N[C@@H](CCc4ccc(C(F)(F)F)c(OC)c4)C(=O)N2C1)N1CC/C=C\C[C@@H](C1=O)N(C)C(=O)CN(C)C(=O)[C@H]([C@@H](C)CC)NC3=O` [PP2264], for which the “NRAS/KRAS (ratio of KD value with respect to NRAS to KD value with respect to KRAS)” value in experiment [1] is reported as “AA (a compound having 20 or more is denoted as AA)”. The “HRAS/KRAS (ratio of KD value with respect to HRAS to KD value with respect to KRAS)” value in experiment [2] is “A (a compound having 10 or more and less than 20 is denoted as A)”.
As for `CC[C@H](C)[C@@H]1NC(=O)[C@H](CC(C)C)N(C)C(=O)C[C@@H](C(=O)N(C)C)N(C)C(=O)[C@H](C2CCCC2)N(C)C(=O)C2(CCCC2)NC(=O)[C@@H]2C[C@H](C)CN2C(=O)[C@H](CCc2cc(F)c(C(F)(F)F)c(F)c2)NC(=O)CN(C)C(=O)[C@H](Cc2ccc(C(F)(F)F)cc2)N2CC/C=C\C[C@@H](C2=O)N(C)C(=O)CN(C)C1=O` [PP2268], the “NRAS/KRAS (ratio of KD value with respect to NRAS to KD value with respect to KRAS)” value in experiment [1] is “A (a compound having 10 or more and less than 20 is denoted as A)”. Moreover, in experiment [2], the “HRAS/KRAS (ratio of KD value with respect to HRAS to KD value with respect to KRAS)” value is “A (a compound having 10 or more and less than 20 is denoted as A)”.
Consider `CCO[C@@H]1C[C@H]2C(=O)NC3(CCCC3)C(=O)N(C)[C@@H](C3CCCC3)C(=O)N(C)[C@H](C(=O)N(C)C)CC(=O)N(C)[C@@H](CC(C)C)C(=O)N[C@@H]([C@@H](C)CC)C(=O)N(C)CC(=O)N(C)[C@H]3C/C=C\CCN(C3=O)[C@@H](Cc3ccc(C(F)(F)F)cc3)C(=O)N(C)CC(=O)N[C@@H](CCc3cc(F)c(Cl)c(F)c3)C(=O)N2C1` [PP2269], for which, in experiment [1], the “NRAS/KRAS (ratio of KD value with respect to NRAS to KD value with respect to KRAS)” value is “A (a compound having 10 or more and less than 20 is denoted as A)”. The “HRAS/KRAS (ratio of KD value with respect to HRAS to KD value with respect to KRAS)” value in experiment [2] is “A (a compound having 10 or more and less than 20 is denoted as A)”.
Consider `CCC[C@H]1C(=O)N[C@@H]([C@@H](C)CC)C(=O)N(C)CC(=O)N(C)[C@H]2C/C=C\CCN(C2=O)[C@@H](Cc2ccc(C(F)(F)F)cc2)C(=O)N(C)CC(=O)N[C@@H](CCc2ccc(C(F)(F)F)c(Cl)c2)C(=O)N2C[C@@H](C)C[C@H]2C(=O)NC2(CC(C)(C)C2)C(=O)N(C)[C@@H](C2CCCC2)C(=O)N(C)[C@H](C(=O)N(C)C)CC(=O)N1C` [PP2270], for which the “NRAS/KRAS (ratio of KD value with respect to NRAS to KD value with respect to KRAS)” value in experiment [1] was “B (a compound having 3 or more and less than 10 is denoted as B)”. Moreover, the “HRAS/KRAS (ratio of KD value with respect to HRAS to KD value with respect to KRAS)” value in experiment [2] was “B (a compound having 3 or more and less than 10 is denoted as B)”.
`CC[C@@H]1C[C@H]2C(=O)NC3(CCCC3)C(=O)N(C)[C@@H](C3CCCC3)C(=O)N(C)[C@H](C(=O)N(C)CC)CC(=O)N(C)[C@@H](C)C(=O)N[C@@H]([C@@H](C)CC)C(=O)N(C)CC(=O)N(C)[C@H]3C/C=C\CCN(C3=O)[C@@H](Cc3ccc(C(F)(F)F)cc3)C(=O)N(C)CC(=O)N[C@@H](CCc3cc(F)c(C(F)(F)F)c(F)c3)C(=O)N2C1` [PP2271]: the “NRAS/KRAS (ratio of KD value with respect to NRAS to KD value with respect to KRAS)” value in experiment [1] is “A (a compound having 10 or more and less than 20 is denoted as A)”. In addition, the “HRAS/KRAS (ratio of KD value with respect to HRAS to KD value with respect to KRAS)” value in experiment [2] was “A (a compound having 10 or more and less than 20 is denoted as A)”.
For `CCC[C@@H]1C[C@H]2C(=O)NC3(CCCC3)C(=O)N(C)[C@@H](C3CCCC3)C(=O)N(C)[C@H](C(=O)N(C)CC)CC(=O)N(C)[C@@H](C)C(=O)N[C@@H]([C@@H](C)CC)C(=O)N(C)CC(=O)N(C)[C@H]3C/C=C\CCN(C3=O)[C@@H](Cc3ccc(C(F)(F)F)cc3)C(=O)N(C)CC(=O)N[C@@H](CCc3cc(F)c(C(F)(F)F)c(F)c3)C(=O)N2C1` [PP2272], the “NRAS/KRAS (ratio of KD value with respect to NRAS to KD value with respect to KRAS)” value in experiment [1] is given as “AA (a compound having 20 or more is denoted as AA)”. The “HRAS/KRAS (ratio of KD value with respect to HRAS to KD value with respect to KRAS)” value in experiment [2] was “A (a compound having 10 or more and less than 20 is denoted as A)”.
`CCC[C@@H]1C[C@H]2C(=O)NC3(CC(C)(C)C3)C(=O)N(C)[C@@H](C3CCCC3)C(=O)N(C)[C@H](C(=O)N(C)C)CC(=O)N(C)[C@@H](C)C(=O)N[C@@H]([C@@H](C)CC)C(=O)N(C)CC(=O)N(C)[C@H]3C/C=C\CCN(C3=O)[C@@H](Cc3ccc(C(F)(F)F)cc3)C(=O)N(C)CC(=O)N[C@@H](CCc3cc(F)c(C(F)(F)F)c(F)c3)C(=O)N2C1` [PP2273]: the “NRAS/KRAS (ratio of KD value with respect to NRAS to KD value with respect to KRAS)” value in experiment [1] is recorded as “AA (a compound having 20 or more is denoted as AA)”. The “HRAS/KRAS (ratio of KD value with respect to HRAS to KD value with respect to KRAS)” value in experiment [2] is “A (a compound having 10 or more and less than 20 is denoted as A)”.
For the compound `CCC[C@@H]1C[C@H]2C(=O)NC3(CC(C)(C)C3)C(=O)N(C)[C@@H](C3CCCC3)C(=O)N(C)[C@H](C(=O)N(C)C)CC(=O)N(C)[C@@H](COC)C(=O)N[C@@H]([C@@H](C)CC)C(=O)N(C)CC(=O)N(C)[C@H]3C/C=C\CCN(C3=O)[C@@H](Cc3ccc(C(F)(F)F)cc3)C(=O)N(C)CC(=O)N[C@@H](CCc3ccc(C(F)(F)F)c(Cl)c3)C(=O)N2C1` [PP2275], in experiment [1], the “NRAS/KRAS (ratio of KD value with respect to NRAS to KD value with respect to KRAS)” value is “A (a compound having 10 or more and less than 20 is denoted as A)”. Further, the “HRAS/KRAS (ratio of KD value with respect to HRAS to KD value with respect to KRAS)” value in experiment [2] is “A (a compound having 10 or more and less than 20 is denoted as A)”.
Regarding `CCC[C@H]1C(=O)N[C@@H]([C@@H](C)CC)C(=O)N(C)CC(=O)N(C)[C@H]2C/C=C\CCN(C2=O)[C@@H](Cc2ccc(C(F)(F)F)cc2)C(=O)N(C)CC(=O)N[C@@H](CCc2ccc(C(F)(F)F)c(OC)c2)C(=O)N2C[C@H](OCC)C[C@H]2C(=O)N(C)C2(CCC2)C(=O)N(C)[C@@H](C2CCCC2)C(=O)N(C)[C@H](C(=O)N(C)C)CC(=O)N1C` [PP2312], the “NRAS/KRAS (ratio of KD value with respect to NRAS to KD value with respect to KRAS)” value in experiment [1] is “A (a compound having 10 or more and less than 20 is denoted as A)”. Also, the “HRAS/KRAS (ratio of KD value with respect to HRAS to KD value with respect to KRAS)” value in experiment [2] was “B (a compound having 3 or more and less than 10 is denoted as B)”.
Turning to `CCC[C@H]1C(=O)N[C@@H]([C@@H](C)CC)C(=O)N(C2CC2)CC(=O)N(C)[C@H]2C/C=C\CCN(C2=O)[C@@H](Cc2ccc(C(F)(F)F)cc2)C(=O)N(C)CC(=O)N[C@@H](CCc2ccc(C(F)(F)F)c(OC)c2)C(=O)N2C[C@H](OCC)C[C@H]2C(=O)N(C)C2(CCC2)C(=O)N(C)[C@@H](C(CC)CC)C(=O)N(C)[C@H](C(=O)N(C)C)CC(=O)N1C` [PP2313], in experiment [1], the “NRAS/KRAS (ratio of KD value with respect to NRAS to KD value with respect to KRAS)” value was “AA (a compound having 20 or more is denoted as AA)”. In experiment [2], the “HRAS/KRAS (ratio of KD value with respect to HRAS to KD value with respect to KRAS)” value is “A (a compound having 10 or more and less than 20 is denoted as A)”.
Consider `CCOC[C@H]1C(=O)N[C@@H]([C@@H](C)CC)C(=O)N(C2CC2)CC(=O)N(C)[C@H]2C/C=C\CCN(C2=O)[C@@H](Cc2ccc(C(F)(F)F)cc2)C(=O)N(C)CC(=O)N[C@@H](CCc2ccc(C(F)(F)F)c(OC)c2)C(=O)N2C[C@H](OCC)C[C@H]2C(=O)N(C)C2(CCC2)C(=O)N(C)[C@@H](C(CC)CC)C(=O)N(C)[C@H](C(=O)N(C)C)CC(=O)N1C` [PP2315], for which the “NRAS/KRAS (ratio of KD value with respect to NRAS to KD value with respect to KRAS)” value in experiment [1] was “A (a compound having 10 or more and less than 20 is denoted as A)”. Besides, the “HRAS/KRAS (ratio of KD value with respect to HRAS to KD value with respect to KRAS)” value in experiment [2] is “A (a compound having 10 or more and less than 20 is denoted as A)”.

The values are drawn from US20250230193A1, “CYCLIC COMPOUND HAVING SELECTIVE KRAS INHIBITORY EFFECT ON HRAS AND NRAS” (CHUGAI SEIYAKU KABUSHIKI KAISHA, priority 2022, published 2025).
